Assay results reported in PMC5131915, “Platinum(II) Iodido Complexes of 7-Azaindoles with Significant Antiproliferative Effects: An Old Story Revisited with Unexpected Outcomes” (PLoS ONE, 2016).
Where two headings read alike, the source gives them in different places.

Assays:
[1] = system: Caco-2 colorectal carcinoma cells; assay: In vitro cytotoxicity testing (MTT assay), Caco-2; format: cell-based, human; conditions: 24 h drug exposure, no recovery, MTT; read-out: IC50±SD, Caco-2
Procedure: (§1) All cell lines were grown as adherent monolayers at 37°C and 5% CO2 in a humidified atmosphere.
(§2) The MTT assay was used to determine the cell viability; MTT = 3-(4,5-dimethylthiazol-2-yl)-2,5-diphenyltetrazolium bromide. A concentration of the formed dye was evaluated spectrophotometrically at 540 nm (TECAN, Schoeller Instruments LLC).
(§3) The data were expressed as the percentage of viability, where 100% and 0% represents the treatments with negative and positive controls, respectively. The data from the cancer cells were acquired from three independent experiments (conducted in triplicate) using cells from different passages. The resulting IC50 values (μM) were calculated from viability curves and the results are presented as arithmetic mean±SD.

[2] = system: G361 malignant melanoma cells; assay: In vitro cytotoxicity testing (MTT assay), G361; format: cell-based, human; conditions: 24 h drug exposure, no recovery, read-out: IC50±SD, G361
Procedure: (§4) A2780 ovarian carcinoma, A2780R cisplatin-resistant ovarian carcinoma, HOS osteosarcoma, G361 malignant melanoma, MCF7 breast carcinoma, A549 lung carcinoma, HeLa cervix carcinoma, 22Rv1 prostate carcinoma and Caco-2 colorectal carcinoma human cancer cell lines were purchased from the European Collection of Cell Cultures (ECACC), while the human non-cancerous hepatocytes (Hep) were supplied by Biopredic Intl. The cell lines were cultured, according to the suppliers`instructions, in RPMI-1640 medium supplemented with 10% of fetal calf serum, 1% of 2 mM glutamine, and 1% penicillin/streptomycin. All cell lines were grown as adherent monolayers at 37°C and 5% CO2 in a humidified atmosphere.
(§5) The cells were seeded to 96-well culture plates, pre-incubated in drug-free media at 37°C for 24 h and treated typically with the 0.01–50.0 μM solutions, prepared from the stock solutions by dilution with medium, for 24 h at 37°C. […] In parallel with compounds 1–8 and the reference drugs, the cells were also treated with vehicle (0.1% DMF in medium; negative control) and Triton X-100 (1%; positive control) to assess the minimal and maximal cell damage, respectively. The MTT assay was used to determine the cell viability; MTT = 3-(4,5-dimethylthiazol-2-yl)-2,5-diphenyltetrazolium bromide. A concentration of the formed dye was evaluated spectrophotometrically at 540 nm (TECAN, Schoeller Instruments LLC).
as §3

[3] = system: MCF7 breast carcinoma cells; assay: In vitro cytotoxicity testing (MTT assay), MCF7; format: cell-based, human; conditions: 24 h drug exposure, no recovery, read-out: IC50±SD, MCF7
Procedure: as §4, §5, §3

[4] = system: human non-cancerous hepatocytes (Hep); assay: In vitro cytotoxicity testing (MTT assay), hepatocytes; format: cell-based; conditions: 24 h drug exposure, no recovery
Procedure: as §4, §5, §3

[5] = system: A549 lung carcinoma cells; assay: In vitro cytotoxicity testing (MTT assay), A549; format: cell-based, human; conditions: 24 h drug exposure, no recovery, read-out: IC50±SD, A549
Procedure: as §4, §5, §3

[6] = system: caspase 3 (Cas-3), active form p17; assay: Ex vivo Western blot of tumour tissues, cleaved caspase 3; format: in vivo, mice; conditions: pooled tumour samples
Procedure: The expression of caspase 3, MCL-1, p53, and β-actin as loading control were evaluated by Western blot analysis and immunodetection. Lysates were mixed with a denaturing loading dye [250 mM Tris-HCl pH 6.8, 5% (v/v) β-mercaptoethanol, 10% (w/v) sodium dodecyl sulfate, 30% (v/v) glycerol, 0.04% (w/v) bromophenol blue], heated for 5 min at 70°C. […] The final protein amount was 50 μg per well. After protein separation in the gel, they were transferred on the Immun-Blot polyvinylidene difluoride membrane 0.2 μm (Bio-Rad, USA). Then, the membrane was blocked by 5% (w/v) BSA in TBST [10 mM Tris-HCl pH 7.5, 150 mM NaCl, 0.1% (v/v) Tween-20]. […] HRP was detected by Clarity Western ECL Substrate (Bio-Rad, USA) using chemiluminescent documentation system Syngene PXi-4 (UK).

[7] = system: L1210 mouse lymphocytic leukaemia cells; assay: In vivo antitumour activity testing, L1210 lymphocytic leukaemia model; design: species or system mice; conditions: dose equimolar to cisplatin 2 mg/kg, i.p.
Procedure: The experimental animals used for in vivo antitumour testing were female DBA/2 SPF mice obtained from Charles Rivers Laboratories. The animals were housed in the Sealsafe NEXT—IVC Blue Line Housing System (Tecniplast, Italy) to ensure the best possible experimental conditions and eliminate the risk of possible intergroup cross-contamination, and kept in Plexiglas cages at constant temperature (22±1°C) and relative humidity of 55±5% for one-week adaptation period before the start of the experiment. All experimental procedures were performed according to the National Institute of Health (NIH) Guide for the Care and Use of Laboratory Animals. The protocol was approved by the Expert Committee on the Protection of Animals Against Cruelty at the University of Veterinary and Pharmaceutical Sciences Brno (Permit Number: 71/2013). The number of pharmacological interventions was limited to the necessary minimum in order to minimize the suffering of animals, which were observed regularly for the symptoms connected with the tumour progression. […] No animals had to be sacrificed due to the above mentioned criteria of humane treatment and no post-application deaths within the 2 hours after the application were observed during the experiment. […] The animal tissues for the ex vivo experiments and histological evaluations were taken post mortem, in case of surviving animals immediately after they were sacrificed by the lethal dose of carbon dioxide inhalation, immediately followed by the cervical dislocation.
The animals were monitored several times a day for the signs of tumour progression and distress development.

[8] = system: A2780R cisplatin-resistant ovarian carcinoma cells; assay: In vitro cytotoxicity testing (MTT assay), A2780R; format: cell-based, human; conditions: for resistance factor (RF), IC50(A2780R)/IC50(A2780): 24 h IC50 values; for IC50: 24 h drug exposure, no recovery, MTT, read-out: IC50±SD, A2780R
Procedure: as §1, §2, §3

[9] = system: A2780 ovarian carcinoma cells; assay: In vitro cytotoxicity testing (MTT assay), A2780; format: cell-based, human
Procedure: as §1, §2, §3

p53 = assay: Ex vivo Western blot of tumour tissues, p53; format: in vivo, mice; conditions: pooled tumour samples
Procedure: (§6) Frozen tumour samples were homogenized by a bench blender IKA DI25 (IKA-Werke, Germany) in the presence of a lysis buffer [cOmplete Protease Inhibitor Cocktail (Roche, Germany), 50 mM Tris-HCl pH 7.5, 1 mM EGTA, 1 mM EDTA, 1 mM sodium orthovanadate, 50 mM sodium fluoride, 5 mM sodium pyrophosphate, 270 mM sucrose, 0.5% (v/v) Triton X-100]. Subsequently, the blended samples were centrifuged at 9.000 g at 4°C for 15 min. The supernatants were collected and the protein concentration was measured by the Brandford’s method using the Brandford reagent (Amresco, USA) according to the manufacturer’s manual. The measured samples were stored at -80°C for the following experiments.
(§7) The expression of caspase 3, MCL-1, p53, and β-actin as loading control were evaluated by Western blot analysis and immunodetection. Lysates were mixed with a denaturing loading dye [250 mM Tris-HCl pH 6.8, 5% (v/v) β-mercaptoethanol, 10% (w/v) sodium dodecyl sulfate, 30% (v/v) glycerol, 0.04% (w/v) bromophenol blue], heated for 5 min at 70°C. To eliminate intra-species variability, and to obtain the same amount of proteins from all experimental groups, all samples from one group of animals were pooled together and loaded onto a 15% polyacrylamide denaturing gel. The final protein amount was 50 μg per well. After protein separation in the gel, they were transferred on the Immun-Blot polyvinylidene difluoride membrane 0.2 μm (Bio-Rad, USA). Then, the membrane was blocked by 5% (w/v) BSA in TBST [10 mM Tris-HCl pH 7.5, 150 mM NaCl, 0.1% (v/v) Tween-20]. […] HRP was detected by Clarity Western ECL Substrate (Bio-Rad, USA) using chemiluminescent documentation system Syngene PXi-4 (UK).

MCL-1L (37 kDa) = assay: Ex vivo Western blot of tumour tissues, MCL-1L; format: in vivo, mice; conditions: pooled tumour samples
Procedure: as §6, §7

[10] = system: spleen, renal tissue and tumour tissues of L1210 leukaemia-bearing mice; assay: Histological observations (light microscopy, semi-quantitative); conditions: relative scale 0 to 4
From the text: Randomly selected paraffin block preparations were stained by standard hematoxylin and eosin stain for light microscopic evaluation. Due to high cellularity, the semi-quantitative method was used for the evaluation of necrosis in well-circumcised and diffuse tumour samples and PMN cells infiltration in normal tissues as an indirect sign of toxicity to healthy tissues. The evaluation of necrotic processes and infiltration by PMN cells was semi-quantitative, based on the percentage of necrotic areas and/or infiltrated area in the view-field of at least three different samples.

HOS osteosarcoma cells = assay: In vitro cytotoxicity testing (MTT assay), HOS; format: cell-based, human; conditions: for IC50: 24 h drug exposure, no recovery, MTT, read-out: IC50±SD, HOS
Procedure: as §4, §5, §3

[11] = system: 22Rv1 prostate carcinoma cells; assay: In vitro cytotoxicity testing (MTT assay), 22Rv1; format: cell-based, human; conditions: 24 h drug exposure, no recovery, read-out: IC50±SD, 22Rv1
Procedure: as §4, §5, §3

[12] = system: HeLa cervix carcinoma cells; assay: In vitro cytotoxicity testing (MTT assay), HeLa; format: cell-based, human; conditions: 24 h drug exposure, no recovery, read-out: IC50±SD, HeLa
Procedure: as §4, §5, §3

[13] = system: cisplatin-resistant HCT116 colon cancer cell line; design: method as in PMID 26226326; conditions: cited from earlier work
[14] = system: cisplatin-sensitive HCT116 colon cancer cell line; design: method as in PMID 26226326; conditions: cited from earlier work
[15] = 24 h drug exposure, no recovery, MTT, read-out: IC50±SD, A2780

Compound	IC50 [1]	IC50 [2]	IC50 [3]	IC50 [4]	IC50 [5]	resistance factor (RF), IC50(A2780R)/IC50(A2780) [8]	IC50 [8]	IC50 [9, 15]	IC50 (HOS osteosarcoma cells)	IC50 [11]	IC50 [12]	also measured
Clc1ccnc2[nH]ccc12.Clc1ccnc2[nH]ccc12.[I][Pt][I] [Complex 5, cis-[Pt(4Claza)2I2]]	2.4 ± 0.7 µM	3.2 ± 0.2 µM	1.5 ± 0.5 µM	4.2 µM	4.7 ± 0.3 µM	1.10	3.4 ± 0.2 µM	3.1 ± 0.1 µM	0.5 ± 0.2 µM	4.2 ± 0.1 µM	3.8 ± 0.3 µM	level of active form of Cas-3 in tumour tissue [6]: has not been observed; tolerability / signs of toxicity (e.g. weight loss) [7]: well-tolerated; percentage of mean survival time T/C [7]: 100%; mean survival time ± SD ([7]; 10 days after implantation, control 17.4±1.6 days): 17.3 ± 2.3 days; IC50 ([9]; 6 h exposure, read-out: IC50, A2780, time-dependent cytotoxicity): 11 ± 2.9 µM; p53 level in tumour tissue (p53): did not affect; MCL-1L level in tumour tissue (MCL-1L (37 kDa)): negligible effect; Areas of necrosis in tumour tissues [10]: 2 (2 = up to 50%); Infiltration of renal tissues (PMN cells) [10]: 1 (1 = up to 25%); Infiltration of spleen (PMN cells) [10]: 3 (3 = up to 75%); times more potent than cisplatin (HOS osteosarcoma cells; HOS cell line): ≤ 47 times
Clc1c[nH]c2ncccc12.Clc1c[nH]c2ncccc12.[I][Pt][I] [Complex 2, cis-[Pt(3Claza)2I2]]	3.1 ± 0.2 µM	2.3 ± 1 µM	1.5 ± 0.4 µM	5.9 µM	6.4 ± 1.4 µM	0.89	3.3 ± 0.5 µM	3.7 ± 0.4 µM	1.3 ± 0.8 µM	4.8 ± 2.4 µM	4.8 ± 0.4 µM	–
N.N.[I-].[I-].[Pt+2] [cis-[PtI2(NH3)2]]	–	–	–	–	–	–	–	–	–	–	–	IC50 [13]: 4.2 µM; IC50 [14]: 13.4 µM
Brc1cnc2[nH]ccc2c1.Brc1cnc2[nH]ccc2c1.[I-].[I-].[Pt+2] [Complex 7, cis-[Pt(5Braza)2I2]]	3.6 ± 0.2 µM	3.4 ± 0.3 µM	1.6 ± 0.8 µM	3.8 µM	7.3 ± 1.6 µM	1.03	3.5 ± 0.5 µM	3.4 ± 0.2 µM	1.4 ± 1.1 µM	5.1 ± 0.8 µM	5.4 ± 1.2 µM	–
[I][Pt][I].c1cnc2[nH]ccc2c1.c1cnc2[nH]ccc2c1 [Complex 1, cis-[Pt(aza)2I2]]	3.3 ± 0.2 µM	2.9 ± 0.6 µM	1.7 ± 0.8 µM	3.9 µM	12.3 ± 1.1 µM	0.94	3.3 ± 0.3 µM	3.5 ± 0.7 µM	0.8 ± 0.4 µM	4.6 ± 1.2 µM	7 ± 0.6 µM	–
Brc1c[nH]c2ncccc12.Brc1c[nH]c2ncccc12.[I][Pt][I] [Complex 3, cis-[Pt(3Braza)2I2]]	3 ± 0.1 µM	3.1 ± 0.2 µM	1.9 ± 0.5 µM	3.9 µM	8.8 ± 2.2 µM	1.14	3.2 ± 0.2 µM	2.8 ± 0.3 µM	2.2 ± 1.2 µM	4.2 ± 1.2 µM	4.7 ± 0.8 µM	–
